# Patent US20150126368A1, “METHOD OF PROVIDING PLANT WITH STRESS RESISTANCE” (Nippon Soda Co., Ltd., priority 2012, published 2015)
# Assays:
# [1] = test system: Wheat (breed, Norin No. 61); experiment: Test for green color maintenance effects (relief of high temperature injury) on wheat; assay type: in vivo; conditions: appl. amount 1.5 g/m^2 at plant foot, 4 times at intervals of seven days, field
# From the text: Wheat (breed, Norin No. 61, 15 plants/m^2/region, 2 reprications) grown in the field was used. A water dispersible granule of 30% ascorbyl palmitate in an amount described in Table 11 was applied to the plant foot 4 times at intervals of seven days from the next day of the ear emergence day in August. The leaf color index of top 4 to 5 leaves of each plant in a treatment region was investigated on September 6 to evaluate maintenance effects of leaf color as compared with that in the untreated region.
# Leaf color was evaluated by […] of leaf color indices of 1 (discolored at ¼ or less of the whole), 2 (discolored at ½ or less of the whole) and 3 (discolored at ¾ or more of the whole). From this, the mean leaf color index, and green color maintenance effects were computed by the following formula.
# Green color maintenance effect=(leaf color index of untreated region)−(leaf color index of each treatment region))/(leaf color index of untreated region)×100
# [2] = test system: tomato yellow leaf curl virus (TYLCV); experiment: Test for symptom relief effects against tomato yellow leaf curl virus disease; assay type: in vivo; conditions: for Onset percentage(%): tomato graft-inoculated, sprayed 4 times; for Onset percentage(%) / Onset inhibition percentage(%): 25 days; for Onset inhibition percentage(%): vs solvent DMF only; for Expectation value(%): expectation value of onset inhibition percentage
# Procedure: N,N-dimethylformamide based solutions were prepared according to the formulations shown in Table 18 to give chemical liquids for the tests.
# Tomato nursery plants (breed: Momotaro) grown up to the 8 leaf stage in a greenhouse were prepared.
# Tomato nursery plants suffering from tomato yellow leaf curl virus (TYLCV) were used as inoculation sources.
# A diseased plant was obliquely cut in round slices at the stem, and graft-inoculated to a tomato nursery plant. In order to prevent dryness, parafilm was wrapped around the grafted portion for protection.
# After the graft inoculation, the above chemical solution was sprayed on the stem and leaf part of the tomato nursery plant in a sufficient amount. Then, the above chemical solution was sprayed 3 times at intervals of about one week in a sufficient amount. Symptoms of tomato yellow leaf curl disease were investigated at an elapsed time of 25 days.
# Symptoms were evaluated by 5 levels of onset indices of 0 (with no onset) to 4 (fulminant).
# Onset inhibition percentages as compared with a region treated with solvent DMF only (Chemical solution 3) were computed by the following formula.
# Onset inhibition percentage=(onset index of region treated with solvent only)−(onset index of each treatment region))/(onset index of region treated with solvent only)×100
# Further, the expectation values of onset inhibition percentages were computed based on the Colby's equation.
# The Colby's equation is E=M+N−MN/100. In the equation, E represents the expectation value of an onset inhibition percentage (%), and M represents an onset inhibition percentage (%) calculated from measurements when the substance (A1) is used alone, and N represent an onset inhibition percentage (%) calculated from measurements when the substance (A2) is used alone.
smiles,measurement,setting,value
CCCCCCCCCCCCCCCC(=O)OC[C@H](O)[C@H]1OC(=O)C(O)=C1O [ascorbyl palmitate],mean leaf color index,[1]; index 1 to 3,1.5
same,Green color maintenance effect(%),[1]; vs untreated region,25.0%
same,Onset percentage(%),[2]; 500 ppm alone,30%
same,Onset inhibition percentage(%),[2]; 500 ppm alone,40%
same,Onset percentage(%),[2]; 1000 ppm alone,20%
same,Onset inhibition percentage(%),[2]; 1000 ppm alone,60%
same,Expectation value(%),[2]; 500 ppm alone,40%
same,Expectation value(%),[2]; 1000 ppm alone,60%
